Experimental findings from patent US9783536B2, “Nitrogen-containing heterocyclic compound or salt thereof” (FUJIFILM Corporation, priority 2013, dated 2017) are described below.

The target in one experiment is T1, human PI3Kα protein (Homo sapiens, UniProt P42336).
T1 construct: purchased Carna Biosciences, Inc; host or cells: baculovirus expression system
Briefly: PI3Kα enzyme assay (ADP-Glo). The experiment is classed as biochemical. As to conditions: read-out: PI3Kα enzyme inhibitory activity. An outline of the steps:
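Biotinylated human PI3Kα (baculovirus-expressed, 4.5 nmol/L) pre-incubated 15 min with compound in Tris-HCl pH 7.5, MgCl2, BSA; reaction 60 min at 25° C with 50 μmol/L PIP2 and 100 μmol/L ATP final. ADP quantified by ADP-Glo luminescence; IC50 calculated.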

The target in experiment [1] is T2, GST fusion human ERK2 protein (Homo sapiens, UniProt P28482).
T2 construct: purchased Carna Biosciences, Inc; host or cells: E. coli expression system
T2 sequence (P28482 whole entry, the tested form may be a part): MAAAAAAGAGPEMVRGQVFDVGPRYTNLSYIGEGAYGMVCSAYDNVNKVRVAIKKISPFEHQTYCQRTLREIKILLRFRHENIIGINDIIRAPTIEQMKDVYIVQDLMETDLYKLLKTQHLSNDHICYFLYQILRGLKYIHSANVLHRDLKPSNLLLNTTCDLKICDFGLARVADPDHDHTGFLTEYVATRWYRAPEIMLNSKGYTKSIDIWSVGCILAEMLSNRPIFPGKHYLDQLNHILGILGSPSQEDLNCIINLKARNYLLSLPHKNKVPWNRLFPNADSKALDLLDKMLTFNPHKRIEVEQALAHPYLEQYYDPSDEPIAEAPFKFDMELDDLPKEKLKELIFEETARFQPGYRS
Nature of the experiment: ERK2 enzyme assay (2). The experiment is classed as biochemical. Particulars: ERK2 enzyme assay (2); read-out: ERK2 enzyme inhibitory activity (2). An outline of the steps: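 IC50 values come from mobility-shift measurement of phosphorylated versus unphosphorylated 5-FAM peptide substrate after EDTA quench. Beforehand, compound and 1.25 nmol/L E. coli-expressed GST–human ERK2 stood 15 min at room temperature (pH 7.5), then 1 mmol/L ATP and 4.25 μmol/L substrate (final) were added for 120 min at 25 °C.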

T1 sequence (P42336 whole entry): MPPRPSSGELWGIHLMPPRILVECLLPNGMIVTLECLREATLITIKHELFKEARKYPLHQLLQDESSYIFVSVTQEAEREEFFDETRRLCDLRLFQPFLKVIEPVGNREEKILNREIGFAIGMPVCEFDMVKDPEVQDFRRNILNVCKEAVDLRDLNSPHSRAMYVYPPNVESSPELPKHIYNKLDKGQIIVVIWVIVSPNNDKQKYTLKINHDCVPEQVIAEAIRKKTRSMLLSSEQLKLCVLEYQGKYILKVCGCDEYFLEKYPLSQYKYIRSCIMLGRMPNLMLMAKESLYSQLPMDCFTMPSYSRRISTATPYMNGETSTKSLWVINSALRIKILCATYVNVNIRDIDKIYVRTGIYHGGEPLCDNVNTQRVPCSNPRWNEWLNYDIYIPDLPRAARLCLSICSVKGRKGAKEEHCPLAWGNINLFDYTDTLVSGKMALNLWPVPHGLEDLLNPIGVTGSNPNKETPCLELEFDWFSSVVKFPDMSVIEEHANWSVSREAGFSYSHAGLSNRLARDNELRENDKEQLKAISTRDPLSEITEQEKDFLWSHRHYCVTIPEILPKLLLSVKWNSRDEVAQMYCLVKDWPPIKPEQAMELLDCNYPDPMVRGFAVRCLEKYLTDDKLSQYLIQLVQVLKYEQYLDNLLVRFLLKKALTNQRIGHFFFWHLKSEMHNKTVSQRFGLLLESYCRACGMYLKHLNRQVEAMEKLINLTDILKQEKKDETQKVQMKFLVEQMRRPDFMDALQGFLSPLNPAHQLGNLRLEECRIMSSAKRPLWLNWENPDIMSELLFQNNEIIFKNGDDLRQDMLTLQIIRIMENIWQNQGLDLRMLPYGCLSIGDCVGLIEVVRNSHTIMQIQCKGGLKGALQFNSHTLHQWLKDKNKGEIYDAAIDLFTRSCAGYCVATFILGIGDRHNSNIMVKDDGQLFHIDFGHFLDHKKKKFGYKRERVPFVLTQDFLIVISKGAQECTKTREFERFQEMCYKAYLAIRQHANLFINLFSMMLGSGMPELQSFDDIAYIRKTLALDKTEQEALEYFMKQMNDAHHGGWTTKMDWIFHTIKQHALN
T1 sequence (P27986 whole entry partner): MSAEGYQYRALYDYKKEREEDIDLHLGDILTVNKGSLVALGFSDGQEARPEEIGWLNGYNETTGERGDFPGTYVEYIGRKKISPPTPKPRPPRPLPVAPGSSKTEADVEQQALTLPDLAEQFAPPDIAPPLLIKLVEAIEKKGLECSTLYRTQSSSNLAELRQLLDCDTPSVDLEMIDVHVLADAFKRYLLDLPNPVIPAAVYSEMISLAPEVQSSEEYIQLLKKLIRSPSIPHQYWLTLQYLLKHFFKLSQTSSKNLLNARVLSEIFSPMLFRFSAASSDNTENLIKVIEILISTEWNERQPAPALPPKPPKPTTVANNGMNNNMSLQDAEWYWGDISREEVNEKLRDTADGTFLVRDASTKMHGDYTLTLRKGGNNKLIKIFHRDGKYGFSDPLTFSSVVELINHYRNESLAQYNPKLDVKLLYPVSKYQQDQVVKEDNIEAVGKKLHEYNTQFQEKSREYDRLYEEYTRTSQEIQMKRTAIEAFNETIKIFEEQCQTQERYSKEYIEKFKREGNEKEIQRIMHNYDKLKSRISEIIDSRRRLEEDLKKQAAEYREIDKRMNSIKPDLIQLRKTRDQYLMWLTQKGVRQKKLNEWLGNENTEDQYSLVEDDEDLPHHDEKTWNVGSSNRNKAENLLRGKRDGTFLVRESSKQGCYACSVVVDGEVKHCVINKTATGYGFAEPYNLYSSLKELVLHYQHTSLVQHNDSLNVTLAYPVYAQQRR

For the compound `CCC(CC)c1cnnc(Nc2ccc3ncc(-c4cnn(C)c4)cc3n2)c1` [Example 0585], the IC50 (on human PI3Kα protein; in experiment [1]) was under 1 µM throughout.

Take `Cn1cc(-c2cnc3ccc(Nc4cc(CC5CCCCC5)cnn4)nc3c2)cn1` [Example 0586]: the IC50 (at human PI3Kα protein; in experiment [1]) was under 1 µM in each case.

On to `Cc1ncc(-c2nn(C)cc2-c2cnc3ccc(Nc4cc(C(C)C)cnn4)nc3c2)s1` [Example 0587], for which the IC50 (on human PI3Kα protein; in experiment [1]) was under 1 µM throughout.

Turning to `COc1ccc(-c2cnc3ccc(Nc4cc(C(C)C)cnn4)nc3c2)cn1` [Example 0590], the results for the IC50 (at human PI3Kα protein; in experiment [1]) were 1 to 10 µM and under 1 µM, respectively.

Regarding `COc1ncccc1-c1cnc2ccc(Nc3cc(C(C)C)cnn3)nc2c1` [Example 0591], the IC50 at human PI3Kα protein is 1 to 10 µM; in experiment [1], under 1 µM.

For `CC(C)c1cnnc(Nc2ccc3ncc(-c4ccc(O)nc4)cc3n2)c1` [Example 0592], the IC50 (on human PI3Kα protein; in experiment [1]) was under 1 µM each time.

Turning to `CC(C)c1cnnc(Nc2ccc3ncc(-c4cccnc4O)cc3n2)c1` [Example 0593], the IC50 is 1 to 10 µM at human PI3Kα protein and under 1 µM in experiment [1].

As for `CC(C)c1cnnc(Nc2ccc3ncc(-c4ccc(=O)n(C)c4)cc3n2)c1` [Example 0594, 5-(6-((5-isopropylpyridazin-3-yl)amino)-1,5-naphthyridin-3-yl)-1-methylpyridin-2(1H)-one], the IC50 (at human PI3Kα protein; in experiment [1]) was under 1 µM each time.

On to `CC(C)c1cnnc(Nc2ccc3ncc(-c4cccn(C)c4=O)cc3n2)c1` [Example 0595, 3-(6-((5-Isopropylpyridazin-3-yl)amino)-1,5-naphthyridin-3-yl)-1-methylpyridin-2(1H)-one], for which the IC50 at human PI3Kα protein was 1 to 10 µM; in experiment [1] it was under 1 µM.

For the compound `CCn1cc(-c2cnc3ccc(Nc4cc(C(C)C)cnn4)nc3c2)ccc1=O` [Example 0596, 1-ethyl-5-(6-((5-isopropylpyridazin-3-yl)amino)-1,5-naphthyridin-3-yl)pyridin-2(1H)-one], the IC50 (on human PI3Kα protein; in experiment [1]) was under 1 µM each time.

Turning to `Cc1ccc(-c2cnc3ccc(Nc4cc(C(C)C)cnn4)nc3c2)cn1` [Example 0597], the values for the IC50 (at human PI3Kα protein; in experiment [1]) were 1 to 10 µM and under 1 µM, respectively.

`Cc1cncc(-c2cnc3ccc(Nc4cc(C(C)C)cnn4)nc3c2)c1` [Example 0598]: the IC50 on human PI3Kα protein is 1 to 10 µM; in experiment [1], under 1 µM.

`Cc1ncccc1-c1cnc2ccc(Nc3cc(C(C)C)cnn3)nc2c1` [Example 0599]: the IC50 at human PI3Kα protein was 1 to 10 µM; in experiment [1] it was under 1 µM.

As for `Cc1ccncc1-c1cnc2ccc(Nc3cc(C(C)C)cnn3)nc2c1` [Example 0600], the IC50 on human PI3Kα protein was 1 to 10 µM; in experiment [1] it was under 1 µM.

With `c1cnnc(Nc2ccc3ncc(-c4cnn(CCCN5CCOCC5)c4)cc3n2)c1` [Example 0601, 7-(1-(3-Morpholinopropyl)-1H-pyrazol-4-yl)-N-(pyridazin-3-yl)-1,5-naphthyridine-2-amine], the IC50 at human PI3Kα protein is 1 to 10 µM; in experiment [1], under 1 µM.

Take `CC(C)c1cnnc(Nc2ccc3ncc(-c4ccnc(N)c4)cc3n2)c1` [Example 0602, 7-(2-aminopyridin-4-yl)-N-(5-isopropylpyridazin-3-yl)-1,5-naphthyridine-2-amine]: the IC50 (at human PI3Kα protein; in experiment [1]) was under 1 µM each time.

For the compound `CC(C)c1cnnc(Nc2ccc3ncc(-c4ccn(C)c(=O)c4)cc3n2)c1` [Example 0603], the IC50 (at human PI3Kα protein; in experiment [1]) was under 1 µM each time.

For the compound `CC(C)c1cnnc(Nc2ccc3ncc(-c4cncnc4)cc3n2)c1` [Example 0604], the IC50 on human PI3Kα protein was 10 to 50 µM; in experiment [1], under 1 µM.

As for `CC(C)c1cnnc(Nc2ccc3ncc(-c4ncccn4)cc3n2)c1` [Example 0605], the IC50 (at human PI3Kα protein; in experiment [1]) was under 1 µM each time.

With `CC(C)c1cnnc(Nc2ccc3ncc(-c4cnccn4)cc3n2)c1` [Example 0606], the IC50 on human PI3Kα protein was 1 to 10 µM; in experiment [1], under 1 µM.

For `CC(C)c1cnnc(Nc2ccc3ncc(-c4cnn(CCCN5CCOCC5C)c4)cc3n2)c1` (stereo not shown) [Example 0607, N-(5-isopropylpyridazin-3-yl)-7-(1-(3-(3-methylmorpholino)propyl)-1H-pyrazol-4-yl)-1,5-naphthyridine-2-amine], the IC50 (at human PI3Kα protein; in experiment [1]) was under 1 µM throughout.

For `CC1CN(CCCn2cc(-c3cnc4ccc(Nc5cc(C(C)C)cnn5)nc4c3)cn2)CCO1` (stereo not shown) [Example 0608], the IC50 (on human PI3Kα protein; in experiment [1]) was under 1 µM throughout.

In the case of `CC(C)c1cnnc(Nc2ccc3ncc(-c4cnn(CCN5CCCCC5)c4)cc3n2)c1` [Example 0609, N-(5-isopropylpyridazin-3-yl)-7-(1-(2-(piperidin-1-yl)ethyl)-1H-pyrazol-4-yl)-1,5-naphthyridine-2-amine], the IC50 (on human PI3Kα protein; in experiment [1]) was under 1 µM throughout.

For the compound `C=Cn1cc(-c2cnc3ccc(Nc4cc(C(C)C)cnn4)nc3c2)cn1` [Example 0610, N-(5-isopropylpyridazin-3-yl)-7-(1-vinyl-1H-pyrazol-4-yl)-1,5-naphthyridine-2-amine], the IC50 (on human PI3Kα protein; in experiment [1]) was under 1 µM throughout.

`CC(C)c1cnnc(Nc2ccc3ncc(-c4cnn(CCN5CCC5)c4)cc3n2)c1` [Example 0611]: the IC50 (on human PI3Kα protein; in experiment [1]) was under 1 µM throughout.

Turning to `CC(C)c1cnnc(Nc2ccc3ncc(-c4cnn(CCN5CC(O)C5)c4)cc3n2)c1` [Example 0612], the IC50 (on human PI3Kα protein; in experiment [1]) was under 1 µM in each case.

Regarding `CC(C)c1cnnc(Nc2ccc3ncc(-c4cnn(CCN5C[C@H](C)O[C@@H](C)C5)c4)cc3n2)c1` [Example 0616, 7-(1-(2-((2S,6S)-2,6-dimethylmorpholino)ethyl)-1H-pyrazol-4-yl)-N-(5-isopropylpyridazin-3-yl)-1,5-naphthyridine-2-amine], the IC50 (at human PI3Kα protein; in experiment [1]) was under 1 µM throughout.

Regarding `CC(C)c1cnnc(Nc2ccc3ncc(-c4cnn(CCN5C[C@@H](C)O[C@@H](C)C5)c4)cc3n2)c1` [Example 0617, 7-(1-(2-((2S,6R)-2,6-dimethylmorpholino)ethyl)-1H-pyrazol-4-yl)-N-(5-isopropylpyridazin-3-yl)-1,5-naphthyridine-2-amine], the IC50 (on human PI3Kα protein; in experiment [1]) was under 1 µM throughout.

For `CC(C)c1cnnc(Nc2ccc3ncc(-c4ccc(=O)n(CCCN5CCOCC5)c4)cc3n2)c1` [Example 0618], the IC50 (on human PI3Kα protein; in experiment [1]) was under 1 µM each time.

As for `CC(C)c1cnnc(Nc2ccc3ncc(-c4cnn(CCN5CC6(COC6)C5)c4)cc3n2)c1` [Example 0619, 7-(1-(2-(2-Oxa-6-azaspiro[3.3]heptan-6-yl)ethyl)-1H-pyrazol-4-yl)-N-(5-isopropylpyridazin-3-yl)-1,5-naphthyridine-2-amine], the IC50 (on human PI3Kα protein; in experiment [1]) was under 1 µM each time.

As for `CC(C)c1cnnc(Nc2ccc3ncc(-c4cncs4)cc3n2)c1` [Example 0620], the IC50 (at human PI3Kα protein; in experiment [1]) was under 1 µM each time.

For `Cc1n[nH]c(C)c1-c1cnc2ccc(Nc3cc(C(C)C)cnn3)nc2c1` [Example 0621], the IC50 on human PI3Kα protein was 1 to 10 µM; in experiment [1], under 1 µM.

Turning to `CC(C)c1cnnc(Nc2ccc3ncc(-c4ccn[nH]4)cc3n2)c1` [Example 0622, N-(5-isopropylpyridazin-3-yl)-7-(1H-pyrazol-5-yl)-1,5-naphthyridine-2-amine], the IC50 (at human PI3Kα protein; in experiment [1]) was under 1 µM throughout.

Consider `CC(C)c1cnnc(Nc2ccc3ncc(N)cc3n2)c1` [Example 0623, N^2-(5-isopropylpyridazin-3-yl)-1,5-naphthyridine-2,7-diamine], for which the IC50 (at human PI3Kα protein; in experiment [1]) was 1 to 10 µM in each case.

Regarding `Cc1nn(C)c(C)c1-c1cnc2ccc(Nc3cc(C(C)C)cnn3)nc2c1` [Example 0624, N-(5-isopropylpyridazin-3-yl)-7-(1,3,5-trimethyl-1H-pyrazol-4-yl)-1,5-naphthyridine-2-amine], the IC50 was 1 to 10 µM at human PI3Kα protein and under 1 µM in experiment [1].

Take `CC(=O)Nc1cnc2ccc(Nc3cc(C(C)C)cnn3)nc2c1` [Example 0625, N-(6-((5-isopropylpyridazin-3-yl)amino)-1,5-naphthyridin-3-yl)acetamide]: the IC50 is under 1 µM on human PI3Kα protein and 1 to 10 µM in experiment [1].

Consider `CC(C)c1cnnc(Nc2ccc3ncc(N(C)C)cc3n2)c1` [Example 0627, N^2-(5-isopropylpyridazin-3-yl)-N^7,N^7-dimethyl-1,5-naphthyridine-2,7-diamine], for which the IC50 is 1 to 10 µM at human PI3Kα protein and under 1 µM in experiment [1].

With `CC(=O)N(C)c1cnc2ccc(Nc3cc(C(C)C)cnn3)nc2c1` [Example 0628, N-(6-((5-isopropylpyridazin-3-yl)amino)-1,5-naphthyridin-3-yl)-N-methylacetamide], the values for the IC50 (at human PI3Kα protein; in experiment [1]) were 10 to 50 µM and under 1 µM, respectively.

On to `COCCC(=O)Nc1cnc2ccc(Nc3cc(C(C)C)cnn3)nc2c1` [Example 0632, N-(6-((5-isopropylpyridazin-3-yl)amino)-1,5-naphthyridin-3-yl)-3-methoxypropanamide], for which the values for the IC50 (on human PI3Kα protein; in experiment [1]) were under 1 µM and 1 to 10 µM, respectively.

For the compound `Cn1cc(-c2cnc3ccc(Nc4cc(C5(C)CC5)cnn4)nc3c2)cn1` [Example 0633], the IC50 (on human PI3Kα protein; in experiment [1]) was under 1 µM in each case.

On to `CC(C)c1cnnc(Nc2ccc3ncc(-c4cn(C)nc4C(F)(F)F)cc3n2)c1` [Example 0634], for which the IC50 (at human PI3Kα protein; in experiment [1]) was under 1 µM in each case.
